18 compounds from patent US9388172B2, “Substituted carbamate compounds” (Hoffmann-La Roche Inc., priority 2012, dated 2016) can be followed below.

The pIC50 is the negative decadic logarithm of the IC50, by convention in mol/L.

pIC50: −log10 of the molar value. Where a name gives a salt, the structure may show the parent alone.

T1 sequence (O75762 whole entry): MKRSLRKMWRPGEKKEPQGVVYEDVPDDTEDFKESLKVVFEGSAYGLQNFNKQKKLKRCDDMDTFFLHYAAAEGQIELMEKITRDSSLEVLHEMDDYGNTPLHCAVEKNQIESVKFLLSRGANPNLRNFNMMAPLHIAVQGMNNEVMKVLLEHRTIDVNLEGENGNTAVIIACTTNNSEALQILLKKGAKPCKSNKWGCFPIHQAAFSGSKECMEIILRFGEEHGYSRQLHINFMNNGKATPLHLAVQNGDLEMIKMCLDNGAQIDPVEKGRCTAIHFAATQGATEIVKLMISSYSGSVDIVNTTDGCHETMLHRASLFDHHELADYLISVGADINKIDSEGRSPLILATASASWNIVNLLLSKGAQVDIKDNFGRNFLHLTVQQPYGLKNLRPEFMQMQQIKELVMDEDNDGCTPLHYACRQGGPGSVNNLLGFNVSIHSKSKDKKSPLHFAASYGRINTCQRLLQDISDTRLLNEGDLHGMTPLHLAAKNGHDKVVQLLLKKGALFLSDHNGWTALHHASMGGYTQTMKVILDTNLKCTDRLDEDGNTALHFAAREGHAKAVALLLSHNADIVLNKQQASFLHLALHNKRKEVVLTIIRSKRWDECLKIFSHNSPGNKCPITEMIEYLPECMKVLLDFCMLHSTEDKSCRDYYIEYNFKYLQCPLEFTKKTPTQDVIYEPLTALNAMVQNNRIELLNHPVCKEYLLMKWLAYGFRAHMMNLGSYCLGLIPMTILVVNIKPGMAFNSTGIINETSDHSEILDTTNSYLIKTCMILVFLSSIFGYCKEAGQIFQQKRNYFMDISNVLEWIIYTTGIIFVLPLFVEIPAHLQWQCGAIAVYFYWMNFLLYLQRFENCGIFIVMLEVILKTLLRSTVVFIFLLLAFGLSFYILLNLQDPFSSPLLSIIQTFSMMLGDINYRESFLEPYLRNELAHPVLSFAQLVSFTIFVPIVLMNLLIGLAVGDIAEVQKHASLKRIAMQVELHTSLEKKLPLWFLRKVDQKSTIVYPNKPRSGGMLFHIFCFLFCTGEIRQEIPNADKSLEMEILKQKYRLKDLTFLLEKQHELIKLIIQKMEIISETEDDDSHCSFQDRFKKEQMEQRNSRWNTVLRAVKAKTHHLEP

This assay addresses T1, hTRPA1 (Homo sapiens, UniProt O75762).
T1 construct: host or cells: CHO-K1 Tet-On HOMSA TRPA1 Clone 20 (Chinese Hamster Ovary cells, inducible expression)
In words: ChanTest hTRPA1-CHO calcium flux dose response assay (FLIPR, cinnamaldehyde agonist). The class given is cell-based. To be noted: CHO-K1 Tet-On hTRPA1 cells, 100 uM cinnamaldehyde agonist, 30 min compound preincubation. How it is done:
IC50 Determination of Exemplified Compounds Dose Response Assay: ChanTest hTRPA1-CHO Stably Transfected Cell Line
CHO-K1 Tet-On HOMSA TRPA1 Clone 20
0.40 mg/ml Zeocin • The cell line doubling rate was ˜15 hours. […] Experiments were run at 24 hours post induction.
Plating Conditions CHOK1/TRPA1 Cells: • Harvested cells with 0.025% trypsin/EDTA. • Resuspended cells in growth media without selection antibiotics. • Measured cell density and diluted to 2.4×10^5 cells/ml in media containing 1 ug/ml Doxycycline Plate 25 ul/well into 384 well black/clear tissue culture-treated plates. • Incubated overnight at 37° C.
• Replacement Buffer: Hank's Balanced Salt Solution, 20 mM HEPES along with 0.005% BSA and 2× Probenecid • Dye Loading Buffer: Cal-3 NW Calcium dye was prepared by dissolving the contents of one vial with 500 ml Hank's Balanced Salt Solution containing 20 mM HEPES.
Control Compounds for CHOK1/TRPA1 Cells: • AP-18, stock 10 mM, prepare 3.5× compound dilution in a Compound Buffer (HBSS/20 mM HEPES/0.005% BSA)−final concentration 10 uM.
Preparation of Cinnamaldehyde (Agonist Addition): • FW=132.16 • Specific gravity=1.046 gm/cc • 1.32 gm/1.046 gm/cc=1.26 ml of stock • Add 1.74 ml DMSO=3.3 M stock • Working solution 4.5× (final 100 uM in Compound Buffer: HBSS/20 mM HEPES/0.005% BSA)
Compounds dilutions were prepared from 5 or 10 mM stock (100% DMSO): • Adjustments of volumes and concentrations were made at time of titration to reflect desired final assay concentrations. • Compounds were tested at either 20 μM three folds dilution 11 steps out or 30 μM two folds dilution 11 steps out. • 3 μl of diluted compound were transferred into Weidmann 384-well plate in duplicates side-by-side. • Compound plates were resuspended with 100 ul of HBSS/20 mM HEPES/0.005% BSA buffer (Compound Buffer): • column 1A-H: buffer/DMSO (bk) • column 2A-H: AP-18 (control antagonist for CHOK1 TRPA1 cells) • column 1I-P: ATP (control for CHOK1 teton cells) • column 2I-P: 2APB (control antagonist for CHOK1/TRPM8 cells).
Growth media was removed from the cell plates (20 ul) and 20 ul of the Replacement Buffer was added followed by addition of 25 ul of diluted dye. All three steps were performed using a Plate Washer BioTek 407. The plates were then incubated for 30′ at RT.
After incubation, both the cell and compound plates were brought to the FLIPR and 20 ul of the diluted compounds/antagonist/bk were transferred to the cell plates by the FLIPR. Plates were then incubated for 30′ at room temperature. After 30′ incubation, plates were returned to the FLIPR and 20 ul of 4.5× Cinnamaldehyde was added to the cell plates. During the compound addition as well as agonist addition, fluorescence readings were taken simultaneously from all 384 wells of the cell plate every 1.5 seconds. Five readings were taken to establish a stable baseline, then 20 ul of sample was rapidly (30 ul/sec) and simultaneously added to each well of the cell plate. The fluorescence was continuously monitored before, during and after sample/agonist addition for a total elapsed time of 100 seconds (compound addition) and 120 seconds (agonist addition). Responses (increase in peak fluorescence) in each well following agonist addition was determined. The initial fluorescence reading from each well, prior to ligand stimulation, was used a zero baseline value for the data from that well.
Background: A change in cytosolic calcium serves as a functional read-out for many receptors and channels.
Take `FC(F)(F)c1cccc(C2CCCN(CC(Cc3nc(-c4ccc(Cl)cc4)no3)C(F)(F)F)C2)c1` (mixture of isomers) [Example 14, 1-{2-[3-(4-Chlorophenyl)-[1,2,4]oxadiazol-5-ylmethyl]-3,3,3-trifluoro-propyl}-3-(3-trifluoromethyl-phenyl)-piperidine hydrochloride]: the pIC50 is 5.58.
In the case of `FC(F)(F)c1cccc(C2CCCN(CC(Cc3nc4cc(Cl)ccc4[nH]3)C(F)(F)F)C2)c1` (stereo not drawn) [Example 1, 5-Chloro-2-{3,3,3-trifluoro-2-[3-(3-trifluoromethyl-phenyl)-piperidin-1-ylmethyl]-propyl}-1H-benzoimidazole hydrochloride], the pIC50 was 5.17.
Under `FC(F)(F)c1cccc(C2CCCN(CC(Cc3ncc(-c4ccc(Cl)cc4)[nH]3)C(F)(F)F)C2)c1` (stereo not drawn) [Example 2, 1-{2-[5-(4-Chlorophenyl)-1H-imidazol-2-ylmethyl]-3,3,3-trifluoro-propyl}-3-(3-trifluoromethyl-phenyl)piperidine hydrochloride] stands 5.43.
Under `FC(F)(F)c1cccc(C2CCCN(CC(Cc3nnc(-c4ccc(Cl)cc4)o3)C(F)(F)F)C2)c1` (stereo not drawn) [Example 3, 1-{2-[5-(4-Chloro-phenyl)-[1,3,4]oxadiazol-2-ylmethyl]-3,3,3-trifluoro-propyl}-3-(3-trifluoromethyl-phenyl)-piperidine hydrochloride] stands 6.15; under `FC(F)(F)c1cccc(C2CCCN(CC(Cc3nc4ccc(Cl)cc4o3)C(F)(F)F)C2)c1` (stereo not drawn) [Example 4, 6-Chloro-2-{3,3,3-trifluoro-2-[3-(3-trifluoromethyl-phenyl)-piperidin-1-ylmethyl]-propyl}-benzooxazole hydrochloride], 4.91.
Under `FC(F)(F)c1cccc(C2CCCN(CC(Cc3ncc(-c4ccccc4)[nH]3)C(F)(F)F)C2)c1` (stereo not drawn) [Example 5, 3-(3-Trifluoromethyl-phenyl)-1-[3,3,3-trifluoro-2-(5-phenyl-1H-imidazol-2-ylmethyl)-propyl]-piperidine hydrochloride] stands 4.95.
Regarding `FC(F)(F)c1cccc(C2CCCN(CC(Cc3ncc(-c4cccc(Cl)c4)[nH]3)C(F)(F)F)C2)c1` (stereo not drawn) [Example 6, 1-{2-[5-(3-Chlorophenyl)-1H-imidazol-2-ylmethyl]-3,3,3-trifluoro-propyl}-3-(3-trifluoromethyl-phenyl)piperidine hydrochloride], the pIC50 is 5.65.
With `Fc1ccc(-c2cnc(CC(CN3CCCC(c4cccc(C(F)(F)F)c4)C3)C(F)(F)F)[nH]2)cc1` (stereo not drawn) [Example 7, 1-{3,3,3-Trifluoro-2-[5-(4-fluoro-phenyl)-1H-imidazol-2-ylmethyl]-propyl}-3-(3-trifluoromethyl-phenyl)-piperidine hydrochloride], the negative-log IC50 (pIC50) was 5.22.
Next, `Fc1ccc(-c2nnc(CC(CN3CCCC(c4cccc(C(F)(F)F)c4)C3)C(F)(F)F)o2)cc1` (stereo not drawn) [Example 8, 1-{3,3,3-Trifluoro-2-[5-(4-fluorophenyl)-[1,3,4]oxadiazol-2-ylmethyl]-propyl}-3-(3-trifluoromethyl-phenyl)-piperidine hydrochloride]: 6.94; `FC(F)(F)c1cccc(C2CCCN(CC(Cc3nnc(-c4cccc(Cl)c4)o3)C(F)(F)F)C2)c1` (stereo not drawn) [Example 9, 1-{2-[5-(3-Chloro-phenyl)-[1,3,4]oxadiazol-2-ylmethyl]-3,3,3-trifluoro-propyl}-3-(3-trifluoromethyl-phenyl)-piperidine hydrochloride]: 5.04; `Cc1ccc(-c2nnc(CC(CN3CCCC(c4cccc(C(F)(F)F)c4)C3)C(F)(F)F)o2)cn1` (stereo not drawn) [Example 10, 2-Methyl-5-(5-{3,3,3-trifluoro-2-[3-(3-trifluoromethyl-phenyl)-piperidin-1-ylmethyl]-propyl}-[1,3,4]oxadiazol-2-yl)-pyridine]: 5.62.
Next, `FC(F)(F)c1cccc(C2CCCN(CC(Cc3nnc(-c4ccc(Cl)cn4)o3)C(F)(F)F)C2)c1` (stereo not drawn) [Example 11, 5-Chloro-2-(5-{3,3,3-trifluoro-2-[3-(3-trifluoromethyl-phenyl)-piperidin-1-ylmethyl]-propyl}-[1,3,4]oxadiazol-2-yl)-pyridine hydrochloride]: 4.52; `Fc1ccc(-c2nnc(CC(CN3CCOC(c4cccc(C(F)(F)F)c4)C3)C(F)(F)F)o2)cc1` (stereo not drawn) [Example 12, 4-{3,3,3-Trifluoro-2-[5-(4-fluoro-phenyl)-[1,3,4]oxadiazol-2-ylmethyl]-propyl}-2-(3-trifluoromethyl-phenyl)-morpholine hydrochloride]: 6.95; `FC(F)(F)c1cccc(C2CCCN(CC(Cc3ncc(-c4ccc(Cl)cc4)o3)C(F)(F)F)C2)c1` (stereo not drawn) [Example 13, 1-{2-[5-(4-Chloro-phenyl)-oxazol-2-ylmethyl]-3,3,3-trifluoro-propyl}-3-(3-trifluoromethyl-phenyl)-piperidine hydrochloride]: 5.14.
Next, `Fc1ccc(-c2nc(CC(CN3CCCC(c4cccc(C(F)(F)F)c4)C3)C(F)(F)F)no2)cc1` (stereo not drawn) [Example 15, 1-{3,3,3-Trifluoro-2-[5-(4-fluoro-phenyl)-[1,2,4]oxadiazol-3-ylmethyl]-propyl}-3-(3-trifluoromethyl-phenyl)-piperidine hydrochloride]: 6.50.
As for `FC(F)(F)c1cccc(C2CN(CC(Cc3nnc(-c4ccc(Cl)cc4)o3)C(F)(F)F)CCO2)c1` (stereo not drawn) [Example 16, 4-{2-[5-(4-Chlorophenyl)-[1,3,4]oxadiazol-2-ylmethyl]-3,3,3-trifluoropropyl}-2-(3-trifluoromethyl-phenyl)-morpholine hydrochloride], the negative-log IC50 (pIC50) was 6.64.
Next, `Fc1ccc(-c2nnc(CC(CN3CCOC(c4ccc(C(F)(F)F)cc4)C3)C(F)(F)F)o2)cc1` (stereo not drawn) [Example 17, 4-{3,3,3-Trifluoro-2-[5-(4-fluoro-phenyl)-[1,3,4]oxadiazol-2-ylmethyl]-propyl}-2-(4-trifluoromethyl-phenyl)-morpholine hydrochloride]: 7.21; `FC(F)(F)c1ccc(C2CN(CC(Cc3nnc(-c4ccc(Cl)cc4)o3)C(F)(F)F)CCO2)cc1` (stereo not drawn) [Example 18, 4-{2-[5-(4-Chloro-phenyl)-[1,3,4]oxadiazol-2-ylmethyl]-3,3,3-trifluoro-propyl}-2-(4-trifluoromethyl-phenyl)-morpholinehydrochloride]: 6.57.
